Assays:
human mGlu5a receptor [1] = target: T1, human mGlu5a receptor (Homo sapiens, UniProt P41594); assay: Shift factor in Ca2+ mobilization assay (human); assay type: cell-based; conditions: shift factor = EC50(glutamate)/EC50(glutamate + test compound)
T1 construct: expressed in transfected cells
Method: A monoclonal HEK-293 cell line stably transfected with a cDNA encoding for the human mGlu5a receptor was generated; for the work with mGlu5 Positive Allosteric Modulators (PAMs), a cell line with low receptor expression levels and low constitutive receptor activity was selected to allow the differentiation of agonistic versus PAM activity. Cells were cultured according to standard protocols (Freshney, 2000) in Dulbecco's Modified Eagle Medium with high glucose supplemented with 1 mM glutamine, 10% (vol/vol) heat-inactivated bovine calf serum, Penicillin/Streptomycin, 50 μg/ml hygromycin and 15 μg/ml blasticidin (all cell culture reagents and antibiotics from Invitrogen, Basel, Switzerland).
About 24 hrs before an experiment, 5×10^4 cells/well were seeded in poly-D-lysine coated, black/clear-bottomed 96-well plates. The cells were loaded with 2.5 μM Fluo-4AM in loading buffer (1×HBSS, 20 mM HEPES) for 1 hr at 37° C. and washed five times with loading buffer. The cells were transferred into a Functional Drug Screening System 7000 (Hamamatsu, Paris, France), and 11 half logarithmic serial dilutions of test compound at 37° C. were added and the cells were incubated for 10-30 min. with on-line recording of fluorescence. Following this pre-incubation step, the agonist L-glutamate was added to the cells at a concentration corresponding to EC20 (typically around 80 μM) with on-line recording of fluorescence; in order to account for day-to-day variations in the responsiveness of cells, the EC20 of glutamate was determined immediately ahead of each experiment by recording of a full dose-response curve of glutamate.
(§1) The shift factor is calculated for a specific concentration of the test compound according to the equation: Shift factor=EC50(glutamate)/EC50(glutamate+×uM test compound).
(§2) On the same 96-well plate a serial dilution of glutamate is added to a) cells previously incubated for 10-30 min. with a fixed concentration of an mGlu5 PAM test compound and b) cells not incubated with mGlu5 PAM test compound. The peak fluorescence signals obtained from cells with or without pre-incubation with mGlu5 PAM test compound is plotted as illustrated, and the two EC50 values are derived from the plot. The shift factor is specific for the concentration of the test compound used and calculated as follows: Shift factor=ECM50(glutamate)/EC50(glutamate+×μM test compound).

Body temperature test = assay type: in vivo; conditions: rat, body temperature at 2 h, read-out: BT test MED (rat)
Method: Principle: Evaluation of the effect of a compound on core body temperature at a 2-h interval in the rat.
The temperature decrease in rats upon administration of mGluR5 negative allosteric modulators (antagonists) is well documented Warty & al.; Psychopharmacology (2005) 179: 207-217 (DOI 10.1007/s00213-005-2143-4)).
Male Sprague Dawley Rats (OFA-SD, Charles River, ˜250 g) are weighed and isolated for at least 30 min before compound injection in type II Makrolon cages. Before injection of the mGlu5 PAM compound, rectal body temperature is measured with a thermometer with a special rat probe for ˜20 s. The probe is dipped in glycerin before each use. Immediately after compound administration, rats are placed back in the type 2 cage. After 2 hours, the body temperature of each rat is measured again. The difference in absolute body temperature as well as the temperature difference delta T2-T0 between vehicle and compound injected rats is analysed.

[2] = HTD/LTD dose, tolerability in rat; conditions: for HTD/LTD Dose (rat) (observation): observation at the HTD/LTD dose
mGlu5 receptor = target: T2, mGlu5 receptor (Rattus norvegicus, UniProt P31424); assay: Shift factor in Ca2+ mobilization assay (rat); assay type: cell-based
T2 construct: expressed in transfected cells
Method: as §1, §2

human mGlu5a receptor [3] = target: T1, human mGlu5a receptor; assay: Intracellular Ca2+ mobilization assay, PAM EC50 and efficacy at EC20 of L-glutamate; assay type: cell-based; conditions: maximal response relative to saturating L-glutamate, FIGS. 4 and 5

T1 sequence (P41594 21-1180 isoform P41594-2 limits assumed): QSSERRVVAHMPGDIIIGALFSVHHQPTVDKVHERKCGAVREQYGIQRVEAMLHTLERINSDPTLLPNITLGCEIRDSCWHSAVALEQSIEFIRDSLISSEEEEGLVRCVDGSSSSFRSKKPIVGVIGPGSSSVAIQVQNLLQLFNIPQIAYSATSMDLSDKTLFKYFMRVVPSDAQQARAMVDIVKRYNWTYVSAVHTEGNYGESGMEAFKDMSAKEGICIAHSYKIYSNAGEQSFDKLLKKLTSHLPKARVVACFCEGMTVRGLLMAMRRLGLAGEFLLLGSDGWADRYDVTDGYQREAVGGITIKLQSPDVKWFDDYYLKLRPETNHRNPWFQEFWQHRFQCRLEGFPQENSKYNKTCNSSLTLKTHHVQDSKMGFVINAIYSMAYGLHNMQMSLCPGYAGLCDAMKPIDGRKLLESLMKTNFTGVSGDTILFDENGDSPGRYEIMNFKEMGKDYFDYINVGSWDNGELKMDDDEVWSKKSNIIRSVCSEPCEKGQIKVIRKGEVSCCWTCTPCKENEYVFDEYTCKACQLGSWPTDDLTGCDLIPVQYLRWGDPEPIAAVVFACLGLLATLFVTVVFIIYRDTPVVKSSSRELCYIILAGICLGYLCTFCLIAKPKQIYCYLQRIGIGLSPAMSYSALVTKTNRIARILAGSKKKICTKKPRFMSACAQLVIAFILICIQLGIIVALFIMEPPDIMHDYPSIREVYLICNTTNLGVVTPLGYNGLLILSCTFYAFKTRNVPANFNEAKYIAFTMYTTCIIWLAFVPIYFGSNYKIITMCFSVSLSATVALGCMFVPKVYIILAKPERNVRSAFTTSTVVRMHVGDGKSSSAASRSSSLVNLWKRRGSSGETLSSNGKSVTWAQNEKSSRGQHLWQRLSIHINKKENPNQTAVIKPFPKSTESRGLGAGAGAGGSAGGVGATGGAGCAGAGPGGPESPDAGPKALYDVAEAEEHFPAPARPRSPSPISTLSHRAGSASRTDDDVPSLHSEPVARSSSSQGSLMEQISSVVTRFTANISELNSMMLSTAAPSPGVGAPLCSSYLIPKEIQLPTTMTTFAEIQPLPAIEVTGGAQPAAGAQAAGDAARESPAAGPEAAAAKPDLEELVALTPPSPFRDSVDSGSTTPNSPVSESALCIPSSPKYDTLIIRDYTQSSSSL
T2 sequence (P31424 21-1203): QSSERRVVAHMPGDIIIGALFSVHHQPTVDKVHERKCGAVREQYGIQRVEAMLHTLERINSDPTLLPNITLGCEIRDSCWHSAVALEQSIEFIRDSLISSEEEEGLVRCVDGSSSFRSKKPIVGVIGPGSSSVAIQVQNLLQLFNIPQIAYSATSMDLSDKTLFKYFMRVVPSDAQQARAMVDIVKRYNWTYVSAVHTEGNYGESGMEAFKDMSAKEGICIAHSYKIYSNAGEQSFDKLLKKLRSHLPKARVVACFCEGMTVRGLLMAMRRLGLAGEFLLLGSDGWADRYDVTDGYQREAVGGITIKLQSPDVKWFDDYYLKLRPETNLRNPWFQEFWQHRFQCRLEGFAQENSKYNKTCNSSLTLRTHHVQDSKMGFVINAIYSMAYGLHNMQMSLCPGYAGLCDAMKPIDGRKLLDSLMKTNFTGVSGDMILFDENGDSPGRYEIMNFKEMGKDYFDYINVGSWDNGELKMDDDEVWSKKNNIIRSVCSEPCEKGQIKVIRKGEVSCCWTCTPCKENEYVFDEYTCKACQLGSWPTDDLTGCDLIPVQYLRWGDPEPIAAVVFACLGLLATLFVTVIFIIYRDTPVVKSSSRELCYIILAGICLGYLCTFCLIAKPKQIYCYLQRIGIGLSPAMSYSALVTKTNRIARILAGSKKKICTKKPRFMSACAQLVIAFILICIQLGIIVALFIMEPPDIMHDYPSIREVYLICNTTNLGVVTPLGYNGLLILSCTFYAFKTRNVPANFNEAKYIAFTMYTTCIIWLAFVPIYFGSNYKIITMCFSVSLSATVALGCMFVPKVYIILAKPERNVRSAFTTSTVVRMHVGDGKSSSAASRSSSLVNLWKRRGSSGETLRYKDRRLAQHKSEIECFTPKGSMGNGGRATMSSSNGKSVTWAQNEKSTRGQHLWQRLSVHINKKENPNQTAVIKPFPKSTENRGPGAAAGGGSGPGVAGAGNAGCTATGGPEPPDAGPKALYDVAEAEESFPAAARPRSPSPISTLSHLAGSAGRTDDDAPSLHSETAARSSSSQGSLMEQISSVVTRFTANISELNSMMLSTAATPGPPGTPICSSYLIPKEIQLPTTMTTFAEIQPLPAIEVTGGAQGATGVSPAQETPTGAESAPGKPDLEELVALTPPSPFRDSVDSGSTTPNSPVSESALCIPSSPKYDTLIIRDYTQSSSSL

Row | SMILES | Shift (hum, 10 uM) (human mGlu5a receptor [1]) | minimal effective dose (Body temperature test) [mg/kg] | HTD/LTD Dose (rat) [2] [mg/kg] | HTD/LTD Dose (rat) (observation) [2] | Shift (rat, 10 uM) (mGlu5 receptor) | efficacy (human mGlu5a receptor [3])
1 | CN(C(=O)c1ncc(C#Cc2cccc(F)c2)cn1)C(C)(C)C [Example 11] | 2.06 | 0.1 | 100 | well tolerated | 1.86 | –
2 | CN(C(=O)c1ccc(C#Cc2cc(F)ccc2F)cn1)C(C)(C)C [Example 12] | 1.86 | 0.1 | 100 | well tolerated | 1.62 | –
3 | CC1(C)CCN(c2ccc(C#Cc3cccc(Cl)c3)cn2)C(=O)C1 [Example 13] | 4.74 | 0.1 | 100 | seizures | 3.92 | –
4 | CN1C(=O)N(c2ccc(C#Cc3ccccc3)nn2)[C@@H]2CCC[C@@H]21 [Example 4] | 2.46 | 0.1 | 100 | well tolerated | 1.70 | –
5 | CC1(C)CCN(c2ccc(C#Cc3ccccc3)cn2)C(=O)C1 [Example 17] | 15.95 | 0.1 | 100 | seizures | 12.93 | –
6 | CC1(C)CCN(c2ccc(C#Cc3ccccc3)cn2)C(=O)O1 [Example 15] | 9.73 | 0.1 | 3 | seizures | 7.67 | high efficacy
7 | CN1C(=O)N(c2ccc(C#Cc3ccccc3)cn2)[C@@H]2CCC[C@@H]21 [Example 2] | 1.02 | 0.1 | 100 | well tolerated | 0.88 | –
8 | CN1C(=O)N(c2ccc(C#Cc3ccccc3)cn2)CC1(C)C [Example 14] | – | 0.3 | 3 | – | – | –
9 | CC1(C)CC(=O)N(c2ccc(C#Cc3cccc(F)c3)cn2)N1 [Example 1] | 1.75 | 0.3 | 100 | well tolerated | 1.44 | low efficacy
10 | CN1C(=O)N(c2ccc(C#Cc3cncc(Cl)c3)cn2)CC1(C)C [Example 8] | 3.60 | 1 | 100 | well tolerated | 2.28 | –
11 | CN1C(=O)N(c2ccc(C#Cc3cccc(F)c3)cn2)[C@@H]2CCC[C@@H]21 [Example 3] | 0.87 | 0.1 | 100 | well tolerated | 0.82 | –
12 | CC1(C)CN(c2ccc(C#Cc3cccc(F)c3)cn2)C(=O)O1 [Example 6] | 1.40 | 0.3 | 100 | well tolerated | 1.90 | –
13 | C(#Cc1cnc2nc(N3CCOCC3)nn2c1)c1ccccc1 [Example 16] | 12.13 | 3 | 10 | seizures | 11.31 | –
14 | CN1C(C)(C)CN(c2ccc(C#Cc3ccccc3)cn2)S1(=O)=O [Example 5] | 2.02 | 0.3 | 100 | well tolerated | 1.66 | –
15 | CN1C(=O)N(c2ncc(C#Cc3ccc(F)cc3)cn2)CC1(C)C [Example 7] | 2.44 | 0.3 | 100 | well tolerated | 1.80 | –
16 | CO[C@@H]1C(=O)N(c2ncc(C#Cc3cccc(F)c3)cn2)CC1(C)C [Example 10] | 3.46 | 0.3 | 100 | well tolerated | 2.62 | –
17 | CC1(C)CN(c2ccc(C#Cc3ccccc3)cn2)C(=O)O1 [Example 9] | 1.70 | 1 | 30 | well tolerated | 2.63 | –
